Laboratory results taken from patent US20220332708A1 (Cytokinetics, Inc., priority 2021, published 2022).

test system: Bovine cardiac myofibrils; assay: Dose-dependent myofibril ATPase modulation (calcium-buffered, pyruvate kinase and lactate dehydrogenase-coupled ATPase assay at pCa25); assay type: biochemical; conditions: concentration at which ATPase activity was 1.4-fold higher than the bottom of the dose curve, mean of a minimum of two independent tests
Method: In Vitro Model of Dose-Dependent Myofibril ATPase Modulation
Dose responses were measured using a calcium-buffered, pyruvate kinase and lactate dehydrogenase-coupled ATPase assay containing the following reagents (concentrations expressed are final assay concentrations): Potassium PIPES (12 mM), MgCl2 (2 mM), ATP (1 mM), DTT (1 mM), BSA (0.1 mg/ml), NADH (0.5 mM), PEP (1.5 mM), pyruvate kinase (4 U/ml), lactate dehydrogenase (8 U/ml), and antifoam (90 ppm). The pH was adjusted to 6.80 at 22° C. by addition of potassium hydroxide. Calcium levels were controlled by a buffering system containing 0.6 mM EGTA and varying concentrations of calcium, to achieve a free calcium concentration of 1×10^−4 M to 1×10^−8 M.
Bovine cardiac myofibrils were obtained by homogenizing the appropriate tissue in the presence of detergent. Such treatment removes membranes and majority of soluble cytoplasmic proteins but leaves intact cardiac sarcomeric acto-myosin apparatus. Concentrations of myofibrils were adjusted to achieve the necessary rate of ATP hydrolysis (typically 0.25-1.0 mg/ml).
Chemical entity dose responses were measured at the calcium concentration corresponding to 25% of maximal ATPase activity (pCa25), so a preliminary experiment was performed to test the response of the ATPase activity to free calcium concentrations in the range of 1×10^−4 M to 1×10^−8 M. Subsequently, the assay mixture was adjusted to the pCa25. Assays were performed by first preparing a dilution series of test chemical entity, each with an assay mixture containing potassium Pipes, MgCl2, BSA, DTT, pyruvate kinase, lactate dehydrogenase, myofibrils, antifoam, EGTA, CaCl2), and water. The assay was started by adding an equal volume of solution containing potassium Pipes, MgCl2, BSA, DTT, ATP, NADH, PEP, antifoam, and water. ATP hydrolysis was monitored by absorbance at 340 nm. The resulting dose response curve was fit by the 4 parameter equation y=Bottom+((Top−Bottom)/(1+((EC50/X)^Hill))). […] AC1.4 values reported in the table below are mean values based on a minimum of two independent tests.

SMILES | AC1.4
Cc1[nH]c(S(=O)(=O)N[C@@H]2CCc3c([nH]c4ccccc34)C2)cc1C(=O)N1CC(C)(C)C1 [Compound 40, (R)-4-(3,3-dimethylazetidine-1-carbonyl)-5-methyl-N-(2,3,4,9-tetrahydro-1H-carbazol-2-yl)-1H-pyrrole-2-sulfonamide] | 0.0608 µM
Cc1[nH]c(S(=O)(=O)N[C@@H]2CCc3c([nH]c4ccccc34)C2)cc1C(=O)N1CCC1 [Compound 41, (R)-4-(azetidine-1-carbonyl)-5-methyl-N-(2,3,4,9-tetrahydro-1H-carbazol-2-yl)-1H-pyrrole-2-sulfonamide] | 0.2434 µM
Cc1[nH]c(S(=O)(=O)N[C@@H]2CCc3c([nH]c4ccccc34)C2)cc1C(=O)N1CC(F)(F)C1 [Compound 42, (R)-4-(3,3-difluoroazetidine-1-carbonyl)-5-methyl-N-(2,3,4,9-tetrahydro-1H-carbazol-2-yl)-1H-pyrrole-2-sulfonamide] | 0.06395 µM
Cc1[nH]c(S(=O)(=O)N[C@@H]2CCc3c([nH]c4ccccc34)C2)cc1C(=O)N1CC(C)(O)C1 [Compound 43] | 0.1254 µM
Cc1[nH]c(S(=O)(=O)N[C@@H]2CCc3c([nH]c4ccccc34)C2)cc1C(=O)NCCF [Compound 44, (R)-N-(2-fluoroethyl)-2-methyl-5-(N-(2,3,4,9-tetrahydro-1H-carbazol-2-yl)sulfamoyl)-1H-pyrrole-3-carboxamide] | 0.906 µM
Cc1[nH]c(S(=O)(=O)N[C@@H]2CCc3c([nH]c4ccccc34)C2)cc1C(=O)NCC(F)(F)F [Compound 45, (R)-2-methyl-5-(N-(2,3,4,9-tetrahydro-1H-carbazol-2-yl)sulfamoyl)-N-(2,2,2-trifluoroethyl)-1H-pyrrole-3-carboxamide] | 0.4627 µM
Cc1[nH]c(S(=O)(=O)N[C@@H]2CCc3c([nH]c4ccccc34)C2)cc1C(=O)N1CCCC1 [Compound 46, (R)-5-methyl-4-(pyrrolidine-1-carbonyl)-N-(2,3,4,9-tetrahydro-1H-carbazol-2-yl)-1H-pyrrole-2-sulfonamide] | 0.2277 µM
Cc1[nH]c(S(=O)(=O)N[C@@H]2CCc3c([nH]c4ccccc34)C2)cc1C(=O)N1CCCCC1 [Compound 47, (R)-5-methyl-4-(piperidine-1-carbonyl)-N-(2,3,4,9-tetrahydro-1H-carbazol-2-yl)-1H-pyrrole-2-sulfonamide] | 1.9857 µM
Cc1[nH]c(S(=O)(=O)N[C@@H]2CCc3c([nH]c4ccccc34)C2)cc1C(=O)N1CC(C)(C#N)C1 [Compound 48, (R)-4-(3-cyano-3-methylazetidine-1-carbonyl)-5-methyl-N-(2,3,4,9-tetrahydro-1H-carbazol-2-yl)-1H-pyrrole-2-sulfonamide] | 0.04675 µM
Cc1[nH]c(S(=O)(=O)Nc2ccc(N3C[C@H](C)C[C@@H](C)C3)nc2)cc1C(=O)N1CC(F)(F)C1 [Compound 49, 4-(3,3-Difluoroazetidine-1-carbonyl)-N-(6-((3R,5R)-3,5-dimethylpiperidin-1-yl)pyridin-3-yl)-5-methyl-1H-pyrrole-2-sulfonamide] | 2.9024 µM
Cc1[nH]c(S(=O)(=O)N[C@H]2C[C@H](c3cccc(Cl)c3)C2)cc1C(=O)N1CC(C)(C#N)C1 [Compound 50, N-((trans)-3-(3-chlorophenyl)cyclobutyl)-4-(3-cyano-3-methylazetidine-1-carbonyl)-5-methyl-1H-pyrrole-2-sulfonamide] | 0.5466 µM
Cc1[nH]c(S(=O)(=O)N[C@H]2C[C@H](c3cccc(F)c3)C2)cc1C(=O)N1CC(C)(C#N)C1 [Compound 51, 4-(3-Cyano-3-methylazetidine-1-carbonyl)-N-((trans)-3-(3-fluorophenyl)cyclobutyl)-5-methyl-1H-pyrrole-2-sulfonamide] | 2.8889 µM
Cc1[nH]c(S(=O)(=O)NC23CC(c4ccccc4)(C2)C3)cc1C(=O)N1CC(C)(C#N)C1 [Compound 52, 4-(3-Cyano-3-methylazetidine-1-carbonyl)-5-methyl-N-(3-phenylbicyclo[1.1.1]pentan-l-yl)-1H-pyrrole-2-sulfonamide] | 1.4557 µM
Cc1[nH]c(S(=O)(=O)N[C@H]2C[C@H](c3ccc(Cl)cc3)C2)cc1C(=O)N1CC(C)(C#N)C1 [Compound 53, N-((trans)-3-(4-chlorophenyl)cyclobutyl)-4-(3-cyano-3-methylazetidine-1-carbonyl)-5-methyl-1H-pyrrole-2-sulfonamide] | 0.6222 µM
Cc1[nH]c(S(=O)(=O)N[C@H]2C[C@@H](c3cccc(C(F)(F)F)c3)C2)cc1C(=O)N1CC(C)(C#N)C1 [Compound 54, 4-(3-Cyano-3-methylazetidine-1-carbonyl)-5-methyl-N-((cis)-3-(3-(trifluoromethyl)phenyl)cyclobutyl)-1H-pyrrole-2-sulfonamide] | 2.9934 µM
Cc1[nH]c(S(=O)(=O)N[C@H]2C[C@H](n3cc(C(F)(F)F)cn3)C2)cc1C(=O)N1CC(C#N)C1 [Compound 55, 4-(3-cyanoazetidine-1-carbonyl)-5-methyl-N-((trans)-3-(4-(trifluoromethyl)-1H-pyrazol-1-yl)cyclobutyl)-1H-pyrrole-2-sulfonamide] | 5.7638 µM

Further lines, results first:

AC1.4 | SMILES
0.9674 µM | Cc1nn([C@H]2C[C@H](NS(=O)(=O)c3cc(C(=O)N4CC(C#N)C4)c(C)[nH]3)C2)cc1C(F)(F)F [Compound 56, 4-(3-Cyanoazetidine-1-carbonyl)-5-methyl-N-((trans)-3-(3-methyl-4-(trifluoromethyl)-1H-pyrazol-1-yl)cyclobutyl)-1H-pyrrole-2-sulfonamide]
0.8572 µM | Cc1[nH]c(S(=O)(=O)N[C@H]2C[C@H](c3cc(C(F)(F)F)ccn3)C2)cc1C(=O)N1CC(C#N)C1 [Compound 57, 4-(3-Cyanoazetidine-1-carbonyl)-5-methyl-N-((trans)-3-(4-(trifluoromethyl)pyridin-2-yl)cyclobutyl)-1H-pyrrole-2-sulfonamide]
1.0081 µM | Cc1[nH]c(S(=O)(=O)N[C@H]2C[C@H](c3cc(C(F)(F)F)ccn3)C2)cc1C(=O)N1CC(C)(C#N)C1 [Compound 58]
0.4184 µM | CNc1cc2c(cc1S(=O)(=O)N[C@H]1C[C@H](c3cc(C(F)(F)F)ccn3)C1)c(=O)[nH]c(=O)n2C [Compound 59]
2.062 µM | CNc1cc2c(cc1S(=O)(=O)N[C@H]1C[C@H](c3cc(C(F)(F)F)ccn3)C1)c(=O)[nH]c(=O)n2C [Compound 60, 1-Methyl-7-(methylamino)-2,4-dioxo-N-((trans)-3-(4-(trifluoromethyl)pyridin-2-yl)cyclobutyl)-1,2,3,4-tetrahydroquinazoline-6-sulfonamide]
0.3215 µM | CNc1cc2c(cc1S(=O)(=O)N[C@H]1C[C@H](n3cc(C(F)(F)F)c(C)n3)C1)c(=O)[nH]c(=O)n2C [Compound 61]
0.8691 µM | COc1cc2c(cc1S(=O)(=O)N[C@H]1C[C@H](n3cc(C(F)(F)F)c(C)n3)C1)c(=O)[nH]c(=O)n2C [Compound 62, 7-Methoxy-1-methyl-N-((trans)-3-(3-methyl-4-(trifluoromethyl)-1H-pyrazol-1-yl)cyclobutyl)-2,4-dioxo-1,2,3,4-tetrahydroquinazoline-6-sulfonamide]
0.3886 µM | Cc1[nH]c(S(=O)(=O)N[C@]2(Cc3ccc(Cl)cc3)CCOC2)cc1C(=O)N1CC(F)(F)C1 [Compound 64, (R)-N-(3-(4-chlorobenzyl)tetrahydrofuran-3-yl)-4-(3,3-difluoroazetidine-1-carbonyl)-5-methyl-1H-pyrrole-2-sulfonamide]
1.1207 µM | Cc1cnc(-c2cc(S(=O)(=O)N[C@H]3C[C@H](n4cc(C(F)(F)F)c(C)n4)C3)[nH]c2C)o1 [Compound 66, 5-Methyl-N-((trans)-3-(3-methyl-4-(trifluoromethyl)-1H-pyrazol-1-yl)cyclobutyl)-4-(5-methyloxazol-2-yl)-1H-pyrrole-2-sulfonamide]
0.05605 µM | Cc1[nH]c(S(=O)(=O)N[C@@H]2CCc3cc(Cl)ccc3C2)cc1C(=O)N1CC(C)(C#N)C1 [Compound 67, (R)-N-(6-chloro-1,2,3,4-tetrahydronaphthalen-2-yl)-4-(3-cyano-3-methylazetidine-1-carbonyl)-5-methyl-1H-pyrrole-2-sulfonamide]
0.1213 µM | Cc1[nH]c(S(=O)(=O)N[C@@H]2CCc3c([nH]c4ccccc34)C2)cc1C1=NCC(C)(C)O1 [Compound 68, (R)-4-(5,5-dimethyl-4,5-dihydrooxazol-2-yl)-5-methyl-N-(2,3,4,9-tetrahydro-1H-carbazol-2-yl)-1H-pyrrole-2-sulfonamide]
0.166 µM | Cc1[nH]c(S(=O)(=O)N[C@@H]2Cc3ccc(Cl)cc3C2)cc1C(=O)N1CC(C)(C#N)C1 [Compound 69, (R)-N-(5-chloro-2,3-dihydro-1H-inden-2-yl)-4-(3-cyano-3-methylazetidine-1-carbonyl)-5-methyl-1H-pyrrole-2-sulfonamide]
